Test results taken from ChEMBL document CHEMBL5665443, “Enzyme Inhibitor Single Concentration assay results for EUbOPEN Chemogenomics Library” (2024).

Assays:
Details in all cases: Hit No
[1] = biological target: T1, Adenine DNA glycosylase (Homo sapiens) (UniProt Q9UIF7);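 note: human MUTYH activity read as 594 nm fluorescence from cleavage and release of a quenched DNA duplex, coupled with APE1 for strand incision, lower signal meaning inhibition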
T1 sequence (whole entry): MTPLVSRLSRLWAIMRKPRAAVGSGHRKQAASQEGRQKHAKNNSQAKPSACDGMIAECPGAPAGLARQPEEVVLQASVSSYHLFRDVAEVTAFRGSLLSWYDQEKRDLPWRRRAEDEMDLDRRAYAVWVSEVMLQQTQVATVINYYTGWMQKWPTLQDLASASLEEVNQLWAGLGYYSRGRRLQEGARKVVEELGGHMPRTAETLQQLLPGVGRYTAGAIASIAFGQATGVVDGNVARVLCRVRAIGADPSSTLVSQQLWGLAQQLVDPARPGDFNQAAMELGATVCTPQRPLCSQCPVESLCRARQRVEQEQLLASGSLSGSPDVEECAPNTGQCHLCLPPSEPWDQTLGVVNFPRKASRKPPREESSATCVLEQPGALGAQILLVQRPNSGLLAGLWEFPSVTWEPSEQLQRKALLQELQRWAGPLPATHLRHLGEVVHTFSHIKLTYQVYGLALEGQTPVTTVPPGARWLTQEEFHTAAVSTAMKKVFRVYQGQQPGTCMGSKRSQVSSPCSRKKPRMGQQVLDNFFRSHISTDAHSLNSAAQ
Description: Inhibition of MUTYH by quantifying inhibition of MUTYH-mediated cleavage and dissociation of quenched duplex DNA oligonucleotides, measured as fluorescence at 594 nm. To generate a functional strand incision and increase turn-over this assay is coupled to APE1.

[2] = biological target: T2, Endonuclease III-like protein 1 (Homo sapiens) (UniProt P78549);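 note: enzyme assay tracking NTHL1 cutting and release of a quenched double-stranded DNA oligo substrate, read as fluorescence at 594 nm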
T2 sequence (whole entry): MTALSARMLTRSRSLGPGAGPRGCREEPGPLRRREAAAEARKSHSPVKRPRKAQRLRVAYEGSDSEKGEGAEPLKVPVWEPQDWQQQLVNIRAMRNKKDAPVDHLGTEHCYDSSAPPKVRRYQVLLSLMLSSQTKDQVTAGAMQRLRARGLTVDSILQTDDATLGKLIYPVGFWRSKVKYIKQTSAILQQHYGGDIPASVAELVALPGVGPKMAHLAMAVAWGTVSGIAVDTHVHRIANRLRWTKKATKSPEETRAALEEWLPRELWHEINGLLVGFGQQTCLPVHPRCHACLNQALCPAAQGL
Description: Inhibition of NTHL1 by quantifying inhibition of NTHL1-mediated cleavage and dissociation of quenched duplex DNA oligonucleotides, measured as fluorescence at 594 nm.

[3] = biological target: T3, Endonuclease 8-like 2 (Homo sapiens) (UniProt Q969S2);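 note: fluorescence at 594 nm reports NEIL2 cutting and release of a quenched double-stranded DNA oligo substrate, reduced signal read as inhibition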
T3 sequence (whole entry): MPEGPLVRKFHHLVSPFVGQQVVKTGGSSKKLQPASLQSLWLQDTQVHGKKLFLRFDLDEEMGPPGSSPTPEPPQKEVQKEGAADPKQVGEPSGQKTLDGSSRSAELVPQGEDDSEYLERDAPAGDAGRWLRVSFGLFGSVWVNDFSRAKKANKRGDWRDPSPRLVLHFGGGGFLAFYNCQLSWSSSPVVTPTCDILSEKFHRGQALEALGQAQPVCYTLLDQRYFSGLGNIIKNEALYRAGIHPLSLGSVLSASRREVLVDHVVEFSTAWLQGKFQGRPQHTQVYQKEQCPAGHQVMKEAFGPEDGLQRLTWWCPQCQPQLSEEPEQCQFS
Description: Inhibition of NEIL2 by quantifying inhibition of NEIL2-mediated cleavage and dissociation of quenched duplex DNA oligonucleotides, measured as fluorescence at 594 nm.

[4] = biological target: G/T mismatch-specific thymine DNA glycosylase (Homo sapiens) (UniProt Q13569);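 note: human TDG cleavage of quenched duplex DNA oligonucleotides coupled to APE1, strand release read as fluorescence at 594 nm, inhibition of TDG activity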
Sequence of G/T mismatch-specific thymine DNA glycosylase (Homo sapiens) (Q13569 whole entry): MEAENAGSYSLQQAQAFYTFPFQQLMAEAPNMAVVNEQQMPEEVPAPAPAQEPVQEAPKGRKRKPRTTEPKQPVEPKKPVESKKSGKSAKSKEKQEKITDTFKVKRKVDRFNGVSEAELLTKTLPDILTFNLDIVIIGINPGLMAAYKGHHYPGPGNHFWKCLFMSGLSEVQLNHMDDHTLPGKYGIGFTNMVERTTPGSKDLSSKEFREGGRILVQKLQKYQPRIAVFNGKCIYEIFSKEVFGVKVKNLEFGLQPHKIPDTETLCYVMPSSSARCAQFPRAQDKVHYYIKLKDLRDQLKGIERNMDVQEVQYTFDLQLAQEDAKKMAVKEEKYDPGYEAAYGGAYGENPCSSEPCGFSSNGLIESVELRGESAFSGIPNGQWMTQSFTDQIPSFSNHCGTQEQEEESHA
Description: Inhibition of TDG by quantifying inhibition of TDG-mediated cleavage and dissociation of quenched duplex DNA oligonucleotides, measured as fluorescence at 594 nm. To generate a functional strand incision and increase turn-over this assay is coupled to APE1.

[5] = biological target: Uracil-DNA glycosylase (Homo sapiens) (UniProt P13051);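 note: UNG excision on a quenched double-stranded DNA oligo probe, with APE1 added for strand incision and turnover, read as fluorescence at 594 nm as strands separate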
Sequence of Uracil-DNA glycosylase (Homo sapiens) (P13051 whole entry): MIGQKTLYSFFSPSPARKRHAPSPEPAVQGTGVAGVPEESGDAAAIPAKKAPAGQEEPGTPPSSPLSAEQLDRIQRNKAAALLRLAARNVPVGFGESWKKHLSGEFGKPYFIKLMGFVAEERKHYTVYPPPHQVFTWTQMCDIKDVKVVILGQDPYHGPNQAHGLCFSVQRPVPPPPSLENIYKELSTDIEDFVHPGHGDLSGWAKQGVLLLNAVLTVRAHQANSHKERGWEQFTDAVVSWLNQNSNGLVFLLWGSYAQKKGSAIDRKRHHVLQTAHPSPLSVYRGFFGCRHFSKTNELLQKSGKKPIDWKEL
Description: Inhibition of UNG by quantifying inhibition of UNG-mediated cleavage and dissociation of quenched duplex DNA oligonucleotides, measured as fluorescence at 594 nm. To generate a functional strand incision and increase turn-over this assay is coupled to APE1.

[6] = biological target: T4, Single-strand selective monofunctional uracil DNA glycosylase (Homo sapiens) (UniProt Q53HV7);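 note: enzymatic SMUG1 assay coupled with APE1, reading fluorescence at 594 nm released when a quenched double-stranded DNA oligonucleotide substrate is cleaved and separated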
T4 sequence (whole entry): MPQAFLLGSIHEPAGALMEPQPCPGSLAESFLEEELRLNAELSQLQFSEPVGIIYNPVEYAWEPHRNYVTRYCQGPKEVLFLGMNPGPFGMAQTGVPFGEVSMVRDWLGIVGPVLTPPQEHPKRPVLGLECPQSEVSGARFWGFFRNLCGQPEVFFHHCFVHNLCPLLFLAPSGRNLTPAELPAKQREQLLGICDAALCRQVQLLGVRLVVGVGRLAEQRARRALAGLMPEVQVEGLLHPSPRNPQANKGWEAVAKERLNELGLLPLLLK
Description: Inhibition of SMUG1 by quantifying inhibition of SMUG1-mediated cleavage and dissociation of quenched duplex DNA oligonucleotides, measured as fluorescence at 594 nm. To generate a functional strand incision and increase turn-over this assay is coupled to APE1.

[7] = biological target: Endonuclease 8-like 1 (Homo sapiens) (UniProt Q96FI4);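 note: fluorescence at 594 nm from quenched duplex DNA oligonucleotides released by NEIL1 cleavage and strand separation, reported as reduction of this enzyme activity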
Sequence of Endonuclease 8-like 1 (Homo sapiens) (Q96FI4 whole entry, the tested form may be a part): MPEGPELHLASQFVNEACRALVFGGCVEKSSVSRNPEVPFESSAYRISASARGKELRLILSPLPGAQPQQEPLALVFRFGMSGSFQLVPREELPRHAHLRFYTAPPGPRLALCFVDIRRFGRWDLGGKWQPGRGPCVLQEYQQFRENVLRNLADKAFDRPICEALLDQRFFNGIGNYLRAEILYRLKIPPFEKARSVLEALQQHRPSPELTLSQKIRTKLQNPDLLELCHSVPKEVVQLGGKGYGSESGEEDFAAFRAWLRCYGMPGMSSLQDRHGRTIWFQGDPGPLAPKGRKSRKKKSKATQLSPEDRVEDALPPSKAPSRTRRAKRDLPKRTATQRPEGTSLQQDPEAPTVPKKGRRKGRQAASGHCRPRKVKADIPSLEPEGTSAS
Description: Inhibition of NEIL1 by quantifying inhibition of NEIL1-mediated cleavage and dissociation of quenched duplex DNA oligonucleotides, measured as fluorescence at 594 nm.

[8] = biological target: Methyl-CpG-binding domain protein 4 (Homo sapiens) (UniProt O95243);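 note: MBD4 activity read as fluorescence at 594 nm from cleavage and release of a quenched duplex DNA oligonucleotide, with APE1 coupled to incise the strand and raise turnover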
Sequence of Methyl-CpG-binding domain protein 4 (Homo sapiens) (O95243 whole entry, the tested form may be a part): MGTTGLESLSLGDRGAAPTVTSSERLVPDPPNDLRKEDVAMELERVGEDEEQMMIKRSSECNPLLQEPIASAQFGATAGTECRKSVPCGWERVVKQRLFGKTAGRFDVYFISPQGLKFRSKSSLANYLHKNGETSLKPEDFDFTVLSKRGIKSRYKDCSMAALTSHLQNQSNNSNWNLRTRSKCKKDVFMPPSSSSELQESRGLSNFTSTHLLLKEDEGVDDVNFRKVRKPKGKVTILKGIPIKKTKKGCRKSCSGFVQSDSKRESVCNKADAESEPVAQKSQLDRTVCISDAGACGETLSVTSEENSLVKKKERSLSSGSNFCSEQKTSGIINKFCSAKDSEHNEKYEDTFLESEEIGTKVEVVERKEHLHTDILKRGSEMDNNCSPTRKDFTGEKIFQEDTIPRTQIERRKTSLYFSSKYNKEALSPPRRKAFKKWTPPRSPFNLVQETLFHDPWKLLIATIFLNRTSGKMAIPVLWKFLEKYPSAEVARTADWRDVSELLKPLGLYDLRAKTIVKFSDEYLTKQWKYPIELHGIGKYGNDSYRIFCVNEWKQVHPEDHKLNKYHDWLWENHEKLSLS
Description: Inhibition of MBD4 by quantifying inhibition of MBD4-mediated cleavage and dissociation of quenched duplex DNA oligonucleotides, measured as fluorescence at 594 nm. To generate a functional strand incision and increase turn-over this assay is coupled to APE1.

[9] = biological target: N-glycosylase/DNA lyase (Homo sapiens) (UniProt O15527);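 note: OGG1 cleavage of a quenched duplex DNA oligonucleotide, coupled to APE1 for strand incision, read as fluorescence at 594 nm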
Sequence of N-glycosylase/DNA lyase (Homo sapiens) (O15527 whole entry): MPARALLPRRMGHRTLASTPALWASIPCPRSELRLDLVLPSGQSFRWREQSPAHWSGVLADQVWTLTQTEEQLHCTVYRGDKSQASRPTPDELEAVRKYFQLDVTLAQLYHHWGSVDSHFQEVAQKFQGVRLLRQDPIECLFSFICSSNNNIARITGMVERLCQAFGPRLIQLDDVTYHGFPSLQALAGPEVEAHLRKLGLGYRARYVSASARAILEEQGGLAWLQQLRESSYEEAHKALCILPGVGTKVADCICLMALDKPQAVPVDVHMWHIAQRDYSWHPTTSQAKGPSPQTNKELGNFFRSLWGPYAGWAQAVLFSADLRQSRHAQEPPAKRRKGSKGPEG
Description: Inhibition of OGG1 by quantifying inhibition of OGG1-mediated cleavage and dissociation of quenched duplex DNA oligonucleotides, measured as fluorescence at 594 nm. To generate a functional strand incision and increase turn-over this assay is coupled to APE1.

SMILES | inhibition ([1]; Compound Concentration 10.0 uM) [%] | inhibition ([2]; Compound Concentration 10.0 uM) [%] | inhibition ([3]; Compound Concentration 10.0 uM) [%] | inhibition ([4]; Compound Concentration 10.0 uM) [%] | inhibition ([5]; Compound Concentration 10.0 uM) [%] | inhibition ([6]; Compound Concentration 10.0 uM) [%] | inhibition ([7]; Compound Concentration 10.0 uM) [%] | inhibition ([8]; Compound Concentration 10.0 uM) [%] | inhibition ([9]; Compound Concentration 10.0 uM) [%] | inhibition ([1]; Compound Concentration 1.0 uM) [%] | inhibition ([2]; Compound Concentration 1.0 uM) [%] | inhibition ([3]; Compound Concentration 1.0 uM) [%] | inhibition ([4]; Compound Concentration 1.0 uM) [%] | inhibition ([5]; Compound Concentration 1.0 uM) [%] | inhibition ([6]; Compound Concentration 1.0 uM) [%] | inhibition ([7]; Compound Concentration 1.0 uM) [%] | inhibition ([8]; Compound Concentration 1.0 uM) [%] | inhibition ([9]; Compound Concentration 1.0 uM) [%]
COCCCS(=O)(=O)c1cc(C)c(-c2ccc(F)c3c2CC[C@H]3Oc2ccc3c(c2)OC[C@H]3CC(=O)O)c(C)c1 | -1.52 | -5.89 | 6.65 | 59.1 | -1.09 | 6.73 | -3.62 | 67.8 | 31 | – | – | – | – | – | – | – | – | –
Cc1ccc(C(=O)Nc2cccc(C(F)(F)F)c2)cc1Nc1nc(-c2cccnc2)nc2c1cnn2C | – | – | – | – | – | – | – | – | – | 7.35 | 0.785 | 3.74 | 48.5 | 6.36 | 23.8 | 6.48 | 14.1 | 5.38
CCc1ccc(N(CC(C)C)S(=O)(=O)c2ccc(OCC3CCOCC3)c(CO)c2)cc1 | 7 | -1.95 | -1.25 | 98.5 | 5.13 | 18.3 | -7.41 | 69.4 | 9.77 | – | – | – | – | – | – | – | – | –
CCc1ccccc1C(=O)Nc1n[nH]c2c(C)c(F)c(C3C(C#N)=C(C)N(C)C(C)=C3C#N)cc12 | 2.35 | -1.95 | 5.63 | 43.7 | 9.1 | 29.9 | -6.65 | 44.9 | 11.1 | 6.2 | 13.3 | – | 36.9 | 1.06 | 13.1 | 0.0055 | 55 | –
O=C1c2ccc(Nc3ccc(F)cc3F)cc2CCc2ccc(OC[C@H](O)CO)cc21 | -4.85 | 0.775 | 4.92 | 39.4 | 8.79 | 11.5 | -0.672 | 32.4 | -9.94 | – | – | – | – | – | – | – | – | –
CC(=O)Nc1c(F)cc(C(=O)N[C@H]2CC[C@H](O)CC2)cc1O[C@@H](C)c1ccccc1 | 6.45 | 5.29 | -0.489 | 69.8 | 5.95 | 12.7 | 2.28 | 61.8 | 12.6 | – | – | – | – | – | – | – | – | –
C[C@H](NC(=O)c1c(C(F)F)nn(C)c1Oc1cccc(C(F)(F)F)c1)c1ccc(C(=O)O)cc1 | 15.2 | 16.6 | 11.8 | 11.8 | -7.93 | 2.15 | -3.02 | -2.06 | -5.88 | – | – | – | – | – | – | – | – | –
Cc1nc(C2CCN(C(=O)c3ccc(OC(F)(F)F)cc3N)CC2)c2ncc(N3CCN(C)CC3)cc2n1 | 9.15 | -0.379 | -4.68 | 61.5 | 7.52 | 17.5 | -5.75 | 30.1 | 7.7 | – | – | – | – | – | – | – | – | –
Cc1cn([C@@H](C)CC#N)c(=O)c2cc(Cn3nc(C(F)F)cc3Cl)nn12 | 0.387 | 5.29 | 0.0213 | 99.3 | 2.85 | 19.8 | -0.442 | 56.2 | 9.38 | – | – | – | – | – | – | – | – | –
CCOC(=O)C1Cc2ccccc2CN1C(=O)c1ccc(SC)s1 (stereo unspecified) | -2.13 | 1.34 | 4.36 | 98.9 | 0.734 | 19.5 | -1.35 | 59.4 | 13.5 | – | – | – | – | – | – | – | – | –
N#CC1(c2ccccn2)CCN(Cc2cc(C(=O)N3CCCC3)c(=O)n3ccccc23)CC1 | -9.61 | 2 | 4.87 | 39.8 | 2.35 | 16.3 | -0.745 | 68.6 | 13.7 | – | – | – | – | – | – | – | – | –
CC1(C)CCC(C)(C)c2cc(C(=O)Nc3ccc(C(=O)O)cc3)ccc21 | 14.4 | 2.66 | -6.36 | 100 | 5.57 | 16.9 | -3.17 | 58.8 | 27.8 | – | – | – | – | – | – | – | – | –
CC(C)CC(=O)N1CCc2nc(-c3ccc(Br)cc3)nc(N(C)Cc3ccccc3)c2C1 | – | – | – | – | – | – | – | – | – | -1.09 | -3.26 | -1.25 | 35.8 | 0.688 | 4.46 | -9.83 | 55.1 | 5
CCC(=N\O)/C(C)=C/c1ccc(F)c(C)c1 | -0.87 | -5.23 | 0.276 | 41.4 | 3.87 | 22.6 | -2.41 | 64.7 | 16.2 | – | – | – | – | – | – | – | – | –
O=C(O)c1ccc2c(c1)nc(Nc1cccc(Cl)c1)c1ccncc12 | 11.4 | 2.18 | -9.73 | 97.5 | -6.1 | 17.2 | -4.62 | -3.96 | 6.06 | – | – | – | – | – | – | – | – | –
CC(C)NC(=O)N1CC[C@H](NC2=Nc3cc(F)ccc3N(CC(F)F)c3ccc(Cl)cc32)C1 | 13.1 | 4.27 | -0.0337 | 62.4 | 8.59 | 26.7 | -1.58 | 0.374 | -3.5 | – | – | – | – | – | – | – | – | –
CS(=O)(=O)N1CCCC(NC(=O)[C@H](CCC2CCCCC2)NC(=O)c2ccc(CNC(=O)c3cnc4ccccn34)cc2)C1 (stereo partly specified) | – | – | – | – | – | – | – | – | – | -1.13 | 7.17 | -2.03 | 41.5 | 0.321 | 10.6 | -0.0491 | 27.9 | -1.52
COc1cccc(-c2nccc3c2CN(c2ccccc2)C3=O)c1 | – | – | – | – | – | – | – | – | – | -4.69 | 4.63 | 7.16 | 45.5 | 3.9 | 17.8 | -3.77 | 63.1 | 5.54
C[C@@]1(Cc2ccc(C#N)cc2)C(=O)N(c2cc(Cl)cc(Cl)c2)c2ncc(C(=O)NC3(c4nc(C5CCC5)no4)CC3)n21 | -3.98 | -5.89 | -9.93 | 98.8 | 3.21 | 14.7 | -6.2 | 57.2 | 13.1 | – | – | – | – | – | – | – | – | –
O=C(O)c1cc(F)c2nc(N3[C@@H]4CC[C@H]3C[C@@H](OCc3c(-c5ccccc5OC(F)(F)F)noc3C3CC3)C4)sc2c1 | 11.9 | 10.6 | -1.76 | 99.3 | 4.52 | 17.7 | -9.38 | 61.7 | 67.8 | – | – | – | – | – | – | – | – | –
CCCCN(CCCC)C(=O)CN1C[C@@H](c2cc(OC)c3c(c2)OCO3)[C@H](C(=O)O)[C@H]1CC(C)(C)CCC | -4.04 | -7.2 | -4.32 | 46 | 4.65 | 23.9 | -6.35 | 63.4 | 44.6 | – | – | – | – | – | – | – | – | –
